Measurements reported in patent publication US8846951B2 (AbbVie Inc., priority 2009, dated 2014).

What was measured:
5HT2B receptors = molecular target: T1, 5HT2B receptors (Homo sapiens, UniProt P41595); test: Human 5-HT2B functional high throughput screening assay in CHO-K1 cells (calcium flux); type: cell-based
T1 construct: expressed in transfected cells; host or cells: CHO-K1 cells
How it was run: (§1)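 Agonism was measured as FLIPR fluorescence increase (480/530 nm, 25° C) with Ca4 dye and 2.5 mM probenecid, in serum-starved CHO-K1 lines overexpressing human 5-HT2C or 5-HT2B. Six-point 1:10 dilutions from 10 μM (0.2% DMSO final) were fitted by 4-parameter logistics. Responses were normalised to serotonin to give EC50 and % Emax.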

5HT2C receptors [1] = molecular target: T2, 5HT2C receptors (Homo sapiens, UniProt P28335); test: Human 5-HT2C functional assay in 1321N1 cells (intracellular calcium, FLIPR); type: cell-based; parameters: expressed in transfected cells; host or cells: 1321N1 cells; conditions: 5-HT2c agonist activity, maximum calcium response
T2 sequence (P28335 33-458): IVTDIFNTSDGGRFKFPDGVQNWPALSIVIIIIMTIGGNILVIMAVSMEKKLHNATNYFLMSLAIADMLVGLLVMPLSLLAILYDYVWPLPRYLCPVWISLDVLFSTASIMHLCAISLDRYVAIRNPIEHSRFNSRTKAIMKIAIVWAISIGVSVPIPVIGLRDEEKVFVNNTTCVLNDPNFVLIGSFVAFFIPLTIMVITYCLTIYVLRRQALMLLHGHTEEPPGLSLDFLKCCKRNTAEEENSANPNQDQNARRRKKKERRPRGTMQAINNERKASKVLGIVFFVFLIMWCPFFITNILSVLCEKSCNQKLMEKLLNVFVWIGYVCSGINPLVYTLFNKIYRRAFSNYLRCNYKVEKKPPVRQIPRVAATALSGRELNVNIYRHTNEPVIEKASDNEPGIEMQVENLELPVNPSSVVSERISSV
Protocol: (ii) Human 5-HT2C Functional Assay in 1321N1 Cells
Functional activity was determined by testing the effect of the compounds on intracellular calcium levels in 1321N1 cells stably transfected with the human 5-HT2C receptor. Cells were seeded into 96-well plates at 50,000 cells/well and grown overnight in tissue culture medium (DMEM with Glutamax I (Invitrogen), containing 10% dFCS, 50 μg/mL Gentamicin, 400 μg/mL Geneticin) at 37° C. and 7% CO2. Growth medium was replaced by medium without dFCS for overnight incubation. Cells were loaded with a fluorescent calcium-sensitive dye in the presence of 1% probenicid according to the manufacturer's protocol (Fluo4 AM, Molecular Devices). Serial compound dilutions (final concentrations 10^−10 to 10^−5 M) were added to the cells either alone or in the presence of serotonin (10^−9 M) and the maximum calcium response was determined using a FLIPR instrument (Molecular Devices). Concentration-response curves were fitted using a four-parameter logistic equation (GraphPad Prism). The concentration at which the compound exerts half its maximal effect is named the ‘effective concentration 50’ or ‘EC50’ and is listed in Table 2.

5HT2C receptors [2] = molecular target: T2, 5HT2C receptors; test: Human 5-HT2C functional high throughput screening assay in CHO-K1 cells (calcium flux); type: cell-based; parameters: expressed in transfected cells; host or cells: CHO-K1 cells
How it was run: as §1

[3] = molecular target: T3, human serotonin 5-HT2c receptor (Homo sapiens, UniProt P28335); test: Human 5-HT2C receptor radioligand binding assay (agonist site, [125I]DOI); conditions: 5-HT2c agonist site; transfected CHO cell membranes; 0.2 nM [125I](±)DOI
T3 construct: expressed in transfected cells; host or cells: CHO cells (membrane homogenates)
T3 sequence (P28335 33-458): T2 sequence (P28335 33-458)
Protocol: (i) Human 5-HT2C Receptor Radioligand Binding Assay
Affinity of compounds for the agonist site of the […], receptor in transfected CHO cells was determined in a radioligand binding assay essentially as described by Bryant, H. U., et al., Life Sciences (1996) 59(15), 1259-1268.

T1 sequence (P41595 whole entry): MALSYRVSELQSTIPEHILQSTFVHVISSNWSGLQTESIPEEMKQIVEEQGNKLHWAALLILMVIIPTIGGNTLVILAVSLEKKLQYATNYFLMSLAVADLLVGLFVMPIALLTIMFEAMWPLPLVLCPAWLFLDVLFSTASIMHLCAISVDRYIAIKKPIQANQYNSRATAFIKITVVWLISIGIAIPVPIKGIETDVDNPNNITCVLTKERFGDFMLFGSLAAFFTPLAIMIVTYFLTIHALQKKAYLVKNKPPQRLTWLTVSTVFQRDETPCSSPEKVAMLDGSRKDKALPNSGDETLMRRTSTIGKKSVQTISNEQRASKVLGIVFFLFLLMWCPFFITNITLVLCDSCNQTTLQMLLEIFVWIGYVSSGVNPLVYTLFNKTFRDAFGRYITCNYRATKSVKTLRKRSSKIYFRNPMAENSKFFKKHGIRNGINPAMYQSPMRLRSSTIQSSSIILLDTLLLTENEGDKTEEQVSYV

Structure (SMILES) | EC50 (5HT2C receptors [1]) [nM] | Ki [3] [nM] | further results
O=C1NC[C@@H]2CN(Cc3ccccc3)C[C@H]2c2ccccc21 (racemic) [Example 1, Trans-2-benzyl-1,2,3,3a,4,5-hexahydrobenzo[c]pyrrolo[3,4-e]azepin-6(10bH)-one] | 11.2 |  | EC50 (5HT2B receptors; 5-HT2B agonist activity, CHO-K1 cells, calcium flux, read-out: EC50): > 10000 nM; Emax (5HT2B receptors; 5-HT2B, maximum functional response as percentage relative to the effect of serotonin): inactive; EC50 (5HT2C receptors [2]; 5-HT2C agonist activity, CHO-K1 cells, calcium flux, read-out: EC50): 20 nM; Emax (5HT2C receptors [2]; CHO-K1, 5-HT2C, maximum functional response as percentage relative to the effect of serotonin, read-out: Emax): > 120%
O=C1NC[C@@H]2CNC[C@H]2c2ccccc21 (relative stereo) [Example 2, Trans-1,2,3,3a,4,5-hexahydrobenzo[c]pyrrolo[3,4-e]azepin-6(10bH)-one] |  | 22 | 
O=C1NC[C@@H]2CN(Cc3ccccc3)C[C@@H]2c2ccccc21 (relative stereo) [Example 3, Cis-2-benzyl-1,2,3,3a,4,5-hexahydrobenzo[c]pyrrolo[3,4-e]azepin-6(10bH)-one] | 101 |  | 
O=C1NC[C@@H]2CNC[C@@H]2c2ccccc21 (relative stereo) [Example 4, Cis-1,2,3,3a,4,5-hexahydrobenzo[c]pyrrolo[3,4-e]azepin-6(10bH)-one] | 202 |  | 
O=C1NC[C@@H]2CN(Cc3cc(Cl)ccc3Cl)C[C@H]2c2ccccc21 (relative stereo) [Example 31, Trans-2-(2,5-dichlorobenzyl)-1,2,3,3a,4,5-hexahydrobenzo[c]pyrrolo[3,4-e]azepin-6(10bH)-one] | 4.05 |  | 
O=C1NC[C@@H]2CN(Cc3ccccc3Cl)C[C@H]2c2ccccc21 (relative stereo) [Example 33, Trans-2-(2-chlorobenzyl)-1,2,3,3a,4,5-hexahydrobenzo[c]pyrrolo[3,4-e]azepin-6(10bH)-one] | 32.9 |  | 
O=C1NC[C@@H]2CN(Cc3ccccc3F)C[C@H]2c2ccccc21 (relative stereo) [Example 35, Trans-2-(2-fluorobenzyl)-1,2,3,3a,4,5-hexahydrobenzo[c]pyrrolo[3,4-e]azepin-6(10bH)-one] | 12.3 |  | 
N#Cc1cccc(CN2C[C@H]3CNC(=O)c4ccccc4[C@@H]3C2)c1 (relative stereo) [Example 36, 3-((Trans-6-oxo-1,3a,4,5,6,10b-hexahydrobenzo[c]pyrrolo[3,4-e]azepin-2(3H)-yl)methyl)benzonitrile] | 77.2 |  | 
O=C1NC[C@@H]2CN(Cc3cccc4ccccc34)C[C@@H]2c2ccccc21 (relative stereo) [Example 43, Cis-2-(naphthalen-1-ylmethyl)-1,2,3,3a,4,5-hexahydrobenzo[e]pyrrolo[3,4-e]azepin-6(10bH)-one] | 81.9 |  | 
O=C1NC[C@@H]2CN(Cc3ccccc3)C[C@H]2c2ccc(Cl)cc21 (relative stereo) [Example 45, Trans-2-benzyl-8-chloro-1,2,3,3a,4,5-hexahydrobenzo[c]pyrrolo[3,4-e]azepin-6(10bH)-one] | 5.95 | 6.9 | 
O=C1NC[C@@H]2CNC[C@H]2c2ccc(Cl)cc21 (relative stereo) [Example 46, Trans-8-chloro-1,2,3,3a,4,5-hexahydrobenzo[e]pyrrolo[3,4-c]azepin-6(10bH)-one] | 1.14 | 11 | 
O=C1NC[C@@H]2CN(Cc3ccccc3)C[C@H]2c2c(Cl)cccc21 (relative stereo) [Example 48, Trans-2-benzyl-10-chloro-1,2,3,3a,4,5-hexahydrobenzo[e]pyrrolo[3,4-c]azepin-6(10bH)-one] | 14.1 | 22 | 
O=C1NC[C@@H]2CNC[C@H]2c2c(Cl)cccc21 (relative stereo) [Example 49] | 48.3 | 170 | 

Further lines, with some results ahead:

EC50 (5HT2C receptors [1]) [nM] | Ki [3] [nM] | Structure (SMILES) | further results
5.22 |  | Cc1cc(C)cc(CN2C[C@H]3CNC(=O)c4ccccc4[C@@H]3C2)c1 (relative stereo) [Example 22, Trans-2-(3,5-dimethylbenzyl)-1,2,3,3a,4,5-hexahydrobenzo[c]pyrrolo[3,4-e]azepin-6(10bH)-one] | 
8.85 |  | Cc1ccc(C)c(CN2C[C@H]3CNC(=O)c4ccccc4[C@@H]3C2)c1 (relative stereo) [Example 23, Trans-2-(2,5-dimethylbenzyl)-1,2,3,3a,4,5-hexahydrobenzo[c]pyrrolo[3,4-e]azepin-6(10bH)-one] | 
45.6 |  | Cc1ccc(CN2C[C@H]3CNC(=O)c4ccccc4[C@@H]3C2)c(C)c1 (relative stereo) [Example 24, Trans-2-(2,4-dimethylbenzyl)-1,2,3,3a,4,5-hexahydrobenzo[c]pyrrolo[3,4-e]azepin-6(10bH)-one] | 
40.2 |  | Cc1ccc(CN2C[C@H]3CNC(=O)c4ccccc4[C@@H]3C2)cc1C (relative stereo) [Example 25, Trans-2-(3,4-dimethylbenzyl)-1,2,3,3a,4,5-hexahydrobenzo[c]pyrrolo[3,4-e]azepin-6(10bH)-one] | 
10.3 |  | Cc1cccc(CN2C[C@H]3CNC(=O)c4ccccc4[C@@H]3C2)c1 (relative stereo) [Example 26, Trans-2-(3-methylbenzyl)-1,2,3,3a,4,5-hexahydrobenzo[c]pyrrolo[3,4-e]azepin-6(10bH)-one] | 
266 | 210 | Cc1cccc(CN2C[C@H]3CNC(=O)c4ccccc4[C@@H]3C2)c1C (relative stereo) [Example 27, Trans-2-(2,3-dimethylbenzyl)-1,2,3,3a,4,5-hexahydrobenzo[c]pyrrolo[3,4-e]azepin-6(10bH)-one] | 
27 | 70 | COc1ccccc1CN1C[C@H]2CNC(=O)c3ccccc3[C@@H]2C1 (relative stereo) [Example 29, Trans-2-(2-methoxybenzyl)-1,2,3,3a,4,5-hexahydrobenzo[c]pyrrolo[3,4-e]azepin-6(10bH)-one] | 
2.11 | 3.4 | O=C1NC[C@@H]2CN(Cc3cc(Cl)cc(Cl)c3)C[C@H]2c2ccccc21 (relative stereo) [Example 30, Trans-2-(3,5-dichlorobenzyl)-1,2,3,3a,4,5-hexahydrobenzo[c]pyrrolo[3,4-e]azepin-6(10bH)-one] | 
19.3 |  | O=C1NC[C@@H]2CN(Cc3cccc(Cl)c3)C[C@H]2c2ccccc21 (relative stereo) [Example 32, Trans-2-(3-chlorobenzyl)-1,2,3,3a,4,5-hexahydrobenzo[c]pyrrolo[3,4-e]azepin-6(10bH)-one] | 
12 |  | O=C1NC[C@@H]2CN(Cc3cccc(F)c3)C[C@H]2c2ccccc21 (relative stereo) [Example 34, Trans-2-(3-fluorobenzyl)-1,2,3,3a,4,5-hexahydrobenzo[c]pyrrolo[3,4-e]azepin-6(10bH)-one] | 
6.24 | 8.6 | COc1cc(CN2C[C@H]3CNC(=O)c4ccccc4[C@@H]3C2)cc(OC)c1 (relative stereo) [Example 38, Trans-2-(3,5-dimethoxybenzyl)-1,2,3,3a,4,5-hexahydrobenzo[c]pyrrolo[3,4-e]azepin-6(10bH)-one] | 
11.3 |  | O=C1NC[C@@H]2CN(Cc3cc(Cl)cc(Cl)c3)C[C@@H]2c2ccccc21 (relative stereo) [Example 40, Cis-2-(3,5-dichlorobenzyl)-1,2,3,3a,4,5-hexahydrobenzo[c]pyrrolo[3,4-e]azepin-6(10bH)-one] | 
4.94 |  | O=C1NC[C@@H]2CN(Cc3cccc(Cl)c3)C[C@@H]2c2ccccc21 (relative stereo) [Example 41, Cis-2-(3-chlorobenzyl)-1,2,3,3a,4,5-hexahydrobenzo[c]pyrrolo[3,4-e]azepin-6(10bH)-one] | 
18.1 |  | O=C1NC[C@@H]2CN(Cc3cccc(F)c3)C[C@@H]2c2ccccc21 (relative stereo) [Example 42, Cis-2-(3-fluorobenzyl)-1,2,3,3a,4,5-hexahydrobenzo[c]pyrrolo[3,4-e]azepin-6(10bH)-one] | 
